Laboratory results: paper PMC9697330, “Co-Delivery of 8-Hydroxyquinoline Glycoconjugates and Doxorubicin by Supramolecular Hydrogel Based on α-Cyclodextrin and pH-Responsive Micelles for Enhanced Tumor Treatment” (Pharmaceutics, 2022)
pIC50: −log10 of the molar value. Where two headings read alike, the source gives them in different places.

Columns and labels:
[1] = tested on: MCF-7 (human breast adenocarcinoma cell line); assay: MTT assay, cytotoxicity against MCF-7 cells; assay type: cell-based
Text: (§1) The human breast adenocarcinoma cell line (MCF-7) was received from collections at the Maria Skłodowska-Curie Memorial Cancer Center and Institute of Oncology (Gliwice, Poland). The Normal Human Dermal Fibroblasts—Neonatal (NHDF-Neo) were purchased from LONZA (Cat. No. CC-2509, Lonza, Poland). The culture media consisted of DMEM + F12 medium, with 5% antibiotics (penicillin and streptomycin) and 10% fetal bovine serum. The culture media was bought from HyClone. Fetal bovine serum (FBS) was purchased from Eurx, Poland. Antibiotic Antimycotic Solution (100×) was purchased from Sigma-Aldrich, Germany.
(§2) The cytotoxicity of blank and drug-loaded SMH were evaluated using the MTT assay (Merck, Darmstadt, Germany). Briefly, human breast adenocarcinoma (MCF-7) or Normal Human Dermal Fibroblasts-Neonatal (NHDF-Neo) cells were seeded into 96-well plates at a concentration of 5 × 10^3 per well. The cell cultures were incubated for 24 h at 37 °C in a humidified atmosphere of 5% CO2. Afterward, the culture medium was removed, replaced with tested formulations, in a medium with varying concentrations, and incubated further for 24, 48, or 72 h, respectively. After that, the medium was removed and the MTT solution was added (0.5 mg·mL^−1 in PBS). After three hours of incubation, the MTT solution was taken off and the precipitated formazan was dissolved in dimethylsulfoxide. The absorbance was measured at 570 nm using a plate reader (Epoch, BioTek, Winooski, VT, USA). The experiments were performed in at least three independent repetitions, with four technical repeats for each tested concentration. The IC50 values were calculated using CalcuSyn software (ver. 2.0, Biosoft, Cambridge, UK). The IC50 parameter was defined as the compound concentration that was necessary to reduce the proliferation of cells to 50% of the untreated control. The results are presented as average values with standard deviations. […] Values of CI < 1 represent synergism; CI = 1 represents an additive interaction (i.e., no interaction); and CI > 1 represents antagonism.

[2] = tested on: NHDF-Neo (Normal Human Dermal Fibroblasts-Neonatal); assay: MTT assay, cytotoxicity against NHDF-Neo cells; assay type: cell-based
Text: as §1, §2

[3] = NMR titration for host-guest inclusion complex of 8HQ-Glu with α-CD; assay type: physicochemical; conditions: D2O, α-CD 10 mM, 8HQ-Glu 1 to 20 mM, 24 h at rt
Procedure: SMHs were prepared based on the host–guest interaction between the PEG chains of mPEG-b-PKPC or mPEG-b-PTMC micelles and α-CD. Typically, the lyophilized micelles were resuspended (15 mg·mL^−1) in PBS at pH 7.4, as a hydrogel precursor. Then, the same volume of 12% solution of α-CD in PBS was added to the micelle solution. The mixture was vortexed for 1 min followed by sonication for 1 min. The resultant mixture was allowed to stand still overnight for solidification. Firstly, gelation was visually observed by a simple vial inversion method. […] Thus, SMHs obtained (mPEG-b-PKPC^SMH or mPEG-b-PTMC^SMH) were used for characterization studies without any further modification. The transmittance of the α-CD and mPEG-b-PKPC^mic solution, measured at predetermined time intervals at 650 nm, immediately after mixing, was studied using a UV-Vis spectrophotometer JASCO V-570 (Tokyo, Japan). To confirm the formation of supramolecular hydrogels, the samples of mPEG5k, α-CD, mPEG-b-PKPC, or mPEG-b-PTMC, the lyophilized mPEG-b-PKPC^mic, or mPEG-b-PTMC^mic, the physical mixture of α-CD with the respective micelles, and freeze-dried SMHs were studied using the X-ray diffraction method (XRD). […] The samples were incubated for 24 h at rt with gentle shaking and the NMR spectra were measured.

Host-guest inclusion complex formation with α-CD (in words) [3] | SMILES | pIC50 ([1]; MCF-7, 24 h incubation, read-out: Activity IC50, as DOX concentration) | pIC50 ([1]; MCF-7, 48 h incubation, read-out: Activity IC50, as DOX concentration) | pIC50 ([1]; MCF-7, 72 h incubation, read-out: Activity IC50, as DOX concentration) | pIC50 ([2]; 24 h incubation, read-out: Activity IC50, as DOX concentration) | pIC50 ([2]; 48 h incubation, read-out: Activity IC50, as DOX concentration) | pIC50 ([2]; 72 h incubation, read-out: Activity IC50, as DOX concentration) | pIC50 ([1]; Homo sapiens, MCF7, MCF-7, 24 h incubation, read-out: Activity IC50, as 8HQ-Glu concentration) | pIC50 ([1]; Homo sapiens, MCF7, MCF-7, 48 h incubation, read-out: Activity IC50, as 8HQ-Glu concentration) | pIC50 ([1]; Homo sapiens, MCF7, MCF-7, 72 h incubation, read-out: Activity IC50, as 8HQ-Glu concentration) | pIC50 ([2]; Homo sapiens, 24 h incubation, read-out: Activity IC50, as 8HQ-Glu concentration) | pIC50 ([2]; Homo sapiens, 48 h incubation, read-out: Activity IC50, as 8HQ-Glu concentration) | pIC50 ([2]; Homo sapiens, 72 h incubation, read-out: Activity IC50, as 8HQ-Glu concentration)
 | COc1cccc2c1C(=O)c1c(O)c3c(c(O)c1C2=O)C[C@@](O)(C(=O)CO)C[C@@H]3O[C@H]1C[C@H](N)[C@H](O)[C@H](C)O1 [DOX, doxorubicin] | 5.06 | 6.09 | 6.82 | < 4.70 | 5.01 | 6.41 |  |  |  |  |  | 
no inclusion complex formation | OC1O[C@H](Cn2cc(COc3cccc4cccnc34)nn2)[C@@H](O)[C@H](O)[C@H]1O (stereo partly drawn) [8HQ-Glu, 6-(4-(8-quinolinyloxymethyl)-1H-1,2,3-triazol-1-yl)-6-deoxy-D-glucopyranose] |  |  |  |  |  |  | 3.77 | 3.89 | 4.26 | < 3.70 | < 3.70 | < 3.70
